Measurements from patent US20170000749A1, “Methods for Treating Cognitive Disorders Using Inhibitors of Histone Deacetylase” (Forum Pharmaceuticals, Inc., priority 2008, published 2017).

System: Drosophila Huntington's Disease model flies
Assay: In Vivo Drosophila Fly Assay for Treatment of Huntington's Disease (automated climbing behavioral assay)
Parameters: species or system Drosophila melanogaster
Description: The Drosophila Huntington's Disease assay used to screen compounds of the present disclosure followed that of WO 2007/002497, which is hereby incorporated by reference in its entirety.
Briefly, parental (model and driver) lines are maintained in sufficient quantities to provide virgins and males for assay crosses as well as perpetuating the lines. Disease model flies are maintained with the disease genes “silent”, functionally linked to a UAS enhancer element. The “driver” lines contain a GAL4 element under the control of a tissue-specific promoter. These are crossed together to generate the assay flies which have tissue-specific (i.e. CNS) expression of the disease gene(s).
Weekly assay crosses are set up with sufficient virgins and males to generate enough assay embryos for sorting. Approximately 50,000 males and 75,000 virgins are crossed in population cages. Embryos are collected for an eight hour window two days later. The embryos are then sorted onto 16 mm assay vials containing regular fly media and allowed to develop. Flies containing both the GAL4 driver element and the disease gene(s) are detected by the presence of GFP, a fluorescing protein. Approximately 10 assay flies eclose per vial, the optimal number for the behavioral assay. Once the flies eclose, they are transferred onto assay vials containing liquid Drosophila food. Similarly, control crosses are set up with virgins of the driver and males from a non-disease UAS line. Throughout fly production and the assay days, all flies are maintained at constant temperature and humidity, with preset light cycle, optimized for the particular lines and crosses.
Quality control (QC) for the parental lines is carried out weekly by collecting a sample of random male flies from each line. Single-fly PCR is carried out to ascertain the presence of the GAL4 or UAS element. If greater than 5% of the individuals lack the appropriate element, the assay cross is aborted. A second form of QC is also carried out to ensure that the GAL4 element is able to drive expression of a transgene. A sample of individual “driver” virgins is crossed to UAS-GFP males. Their progeny are visually checked for GFP expression in the appropriate tissues. Lack of GFP in greater than 4% of the crosses results in the assay being aborted.
Test compounds are weighed out and dissolved in DMSO at stock concentrations 100× what is desired in the assay and arrayed into 96-well master plates, including wells for DMSO-only controls and the positive control(s). A single well is reserved for a colored dye used to ensure proper orientation of compounds during drug dispensing and fly transfer. Replicate daughter plates for each day of the assay are stamped out. The plates are bar coded and stored at −20 C until used for the assay.
For a particular assay day, the plates are thawed and a robotic liquid handler is used to dilute the test compound into the liquid fly food and dispense the mixture into the assay vials. For Huntington Disease (HD) models, eight replicates per single treatment (one compound, one concentration) are dispensed. Fresh test compound treated media is made daily during an assay.
On the day the assay flies eclose (emerge from […]; assay Day 0) they are transferred to the test compound treated vials. On assay Day 1, the flies are transferred onto clean test compound treated vials one hour before assay time. They are then placed in the assay machine to acclimate to the appropriate climate conditions.
The assay machine is an environmentally-enclosed and controlled robot that can maintain user-set temperature and humidity. The machine can hold up to sixteen 96-vial racks in four quadrants, for a total of 1536 vials. There are four camera stations, which hold four vials each and a CCD camera for movie capture. […]

[1] = effect size of early speed (days 1-7) vs DMSO-carrier control
[2] = effect size of late speed (days 8-10) vs DMSO-carrier control

| Compound | Speed 1 to 7 (concentration) 100 uM [1] | Speed 1 to 7 (concentration) 300 uM [1] | Speed 8 to 10 (concentration) 100 uM [2] | Speed 8 to 10 (concentration) 300 uM [2] | Speed 1 to 7 (concentration) 30 uM (effect size of early speed (days 1-7) vs DMSO-carrier control, 30 uM) | Speed 8 to 10 (concentration) 30 uM (effect size of late speed (days 8-10) vs DMSO-carrier control, 30 uM) |
| --- | --- | --- | --- | --- | --- | --- |
| O=C(NO)c1cnc(N2CC3CC2CN3c2cccc3nonc23)nc1 (stereo not shown) | 0.84 | 0.68 | 0.26 | 0.5 |  |  |
| O=C(NO)c1ccc(C2=Nc3ccccc3Oc3ccc(F)cc32)cc1 [drawing 821] | −0.004 | 0.444 | 0.139 | 0.47 | 0.118 | −0.108 |
